# According to patent US10407395B2, “Benzimidazole compound and medical use thereof” (Sumitomo Dainippon Pharma Co., Ltd., priority 2015, dated 2019):
# Read-outs that look alike come from different tables or passages of the source.
# Target: human SCN9A (Nav 1.7) (Homo sapiens, UniProt Q15858)
# Assay: Measurement of Na ion current (Nav 1.7) by automated patch clamp assay in cells stably-expressing human SCN9A
# Assay type: cell-based
# Conditions: read-out: Inhibitory rate (%) of Na ion current; for inhibition at 100 µM: compound concentration 100 μmol/L (footnoted examples)
# Method: Measurement of Na Ion Current in Voltage-Dependent Na Channel Gene Expressed Cell Nav 1.7 current was measured by automated patch clamp assay using cells stably-expressing human SCN9A. Cells Stably-expressing Human SCN9A Tetracycline-induced cells stably-expressing SCN9A were obtained from ChanTest Corporation. […] Next day, the Na ion current was measured by automated patch clamp assay. Electrophysiologic Measurement of Na Ion Current The Na ion current was measured by automated patch clamp assay using the following extracellular solution and intracellular solution. […] The control of the stimulating pulse and the data acquisition were carried out using EPC10 amplifier and Patch Master Software (HEKA). Data were sampled at 10 kHz, and low-pass filtered at 3 kHz. All the measurements were carried out at room temperature. […] The inhibitory rate of the Na ion current by the test compounds was calculated according to the following calculating formula with the peak current value generated by the depolarizing pulse. […] The inhibitory rate of Na ion current by each Example Compound was evaluated.
# [1] = compound concentration 10 μmol/L, holding potential inactivating 50% Nav 1.7 channel (around −60 mV)
# [2] = holding potential inactivating 50% Nav 1.7 channel (around −60 mV)
# human SCN9A (Nav 1.7), sequence (Q15858 whole entry): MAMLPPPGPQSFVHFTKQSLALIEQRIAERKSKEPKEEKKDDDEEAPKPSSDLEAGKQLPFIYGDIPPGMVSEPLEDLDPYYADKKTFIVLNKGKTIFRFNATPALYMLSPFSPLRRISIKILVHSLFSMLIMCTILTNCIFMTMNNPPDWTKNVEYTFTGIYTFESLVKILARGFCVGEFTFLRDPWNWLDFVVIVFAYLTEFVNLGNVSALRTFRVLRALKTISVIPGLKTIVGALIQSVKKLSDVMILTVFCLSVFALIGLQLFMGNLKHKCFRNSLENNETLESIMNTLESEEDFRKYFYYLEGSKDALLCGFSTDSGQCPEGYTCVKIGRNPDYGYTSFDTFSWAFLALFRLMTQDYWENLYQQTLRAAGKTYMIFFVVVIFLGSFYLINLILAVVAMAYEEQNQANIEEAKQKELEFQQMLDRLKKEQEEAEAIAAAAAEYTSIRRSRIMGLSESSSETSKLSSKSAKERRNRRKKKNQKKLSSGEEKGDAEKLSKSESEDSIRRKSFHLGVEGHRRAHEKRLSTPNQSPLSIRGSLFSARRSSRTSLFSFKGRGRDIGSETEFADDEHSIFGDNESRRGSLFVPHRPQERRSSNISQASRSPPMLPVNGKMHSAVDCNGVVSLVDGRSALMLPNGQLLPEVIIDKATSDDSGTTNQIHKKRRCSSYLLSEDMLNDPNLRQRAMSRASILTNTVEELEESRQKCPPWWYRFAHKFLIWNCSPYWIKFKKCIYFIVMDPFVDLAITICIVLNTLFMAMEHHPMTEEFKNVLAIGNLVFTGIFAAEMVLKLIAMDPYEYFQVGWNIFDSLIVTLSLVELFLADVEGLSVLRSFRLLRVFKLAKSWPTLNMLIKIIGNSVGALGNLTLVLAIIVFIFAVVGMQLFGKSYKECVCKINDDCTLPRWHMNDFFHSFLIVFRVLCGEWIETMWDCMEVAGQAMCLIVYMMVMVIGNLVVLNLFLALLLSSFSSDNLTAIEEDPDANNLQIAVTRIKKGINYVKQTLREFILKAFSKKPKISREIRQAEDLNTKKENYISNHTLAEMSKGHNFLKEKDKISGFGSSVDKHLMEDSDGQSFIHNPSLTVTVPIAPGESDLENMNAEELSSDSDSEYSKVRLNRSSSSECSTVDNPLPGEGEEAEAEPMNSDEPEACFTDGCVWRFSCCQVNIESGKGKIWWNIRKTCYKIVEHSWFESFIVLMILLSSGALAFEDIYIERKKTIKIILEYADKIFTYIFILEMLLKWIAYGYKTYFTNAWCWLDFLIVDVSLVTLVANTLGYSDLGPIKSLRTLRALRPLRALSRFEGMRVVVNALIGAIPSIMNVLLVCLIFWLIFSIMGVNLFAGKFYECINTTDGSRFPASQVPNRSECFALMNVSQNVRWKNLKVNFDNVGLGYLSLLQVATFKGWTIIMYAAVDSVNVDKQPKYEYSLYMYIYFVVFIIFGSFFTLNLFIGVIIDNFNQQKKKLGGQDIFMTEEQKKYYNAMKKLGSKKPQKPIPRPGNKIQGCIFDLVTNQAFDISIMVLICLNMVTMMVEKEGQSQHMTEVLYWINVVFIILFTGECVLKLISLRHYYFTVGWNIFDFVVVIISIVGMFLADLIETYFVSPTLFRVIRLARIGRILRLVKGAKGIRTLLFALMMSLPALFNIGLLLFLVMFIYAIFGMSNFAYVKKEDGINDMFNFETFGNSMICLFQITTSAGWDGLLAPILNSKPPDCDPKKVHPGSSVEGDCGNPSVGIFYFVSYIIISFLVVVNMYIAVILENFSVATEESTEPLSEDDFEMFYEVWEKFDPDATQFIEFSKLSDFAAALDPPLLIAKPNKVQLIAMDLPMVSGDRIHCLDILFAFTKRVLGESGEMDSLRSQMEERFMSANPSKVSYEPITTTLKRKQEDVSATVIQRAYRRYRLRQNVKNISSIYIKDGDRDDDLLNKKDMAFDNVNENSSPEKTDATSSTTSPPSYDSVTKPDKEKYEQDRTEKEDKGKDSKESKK
Compound,inhibition at 10 µM [1] [%],also measured
"CC(C)(O)Cn1cnc2cc(Oc3cccc(C(F)(F)F)n3)ccc21 [Example 43, 2-methyl-1-(5-{[6-(trifluoromethyl)pyridin-2-yl]oxy}-1H-benzimidazol-1-yl)propan-2-ol]",20,
"CC(C)(O)Cn1cnc2ccc(Oc3ccc(OC(F)(F)F)cc3)cc21 [Example 22, 2-methyl-1-{6-[4-(trifluoromethoxy)phenoxy]-1H-benzimidazol-1-yl}propan-2-ol]",73,
CC(C)(O)Cn1cnc2ccc(-c3ccccc3Cl)cc21 [Example 138],34,
CC(C)(O)CCn1cnc2ccc(Oc3ccc(C(F)(F)F)nc3)cc21 [Example 103],10,
OC1(Cn2cnc3ccc(-c4ccc(C(F)(F)F)cc4F)cc32)COC1 [Example 149],34,
Cc1ccc(-c2ccc3c(c2)ncn3CC(C)(C)O)cn1 [Example 183],,inhibition at 100 µM [2]: 30%
COc1cc(C(F)(F)F)ccc1-c1ccc2ncn(CC(C)(C)O)c2c1 [Example 124],61,
"C[C@@H](n1cnc2ccc(Oc3ccc(C(F)(F)F)cn3)cc21)C(C)(C)O [Example 228, (3R)-2-methyl-3-(6-{[5-(trifluoromethyl)pyridin-2-yl]oxy}-1H-benzimidazol-1-yl)butan-2-ol]",,inhibition at 100 µM [2]: 66%
CC(C)(O)Cn1cnc2ccc(-c3ccc4ncccc4c3)cc21 [Example 145],15,
"CC(C)(O)Cn1cnc2cc(Oc3ncc(C(F)(F)F)cc3F)ccc21 [Example 53, 1-(5-{[3-fluoro-5-(trifluoromethyl)pyridin-2-yl]oxy}-1H-benzimidazol-1-yl)-2-methylpropan-2-ol]",69,
OC1(Cn2cnc3ccc(Oc4ccc(C(F)(F)F)nc4)cc32)COC1 [Example 96],,inhibition at 100 µM [2]: 32%
OC1(Cn2cnc3ccc(Oc4cccc(F)c4)cc32)COC1 [Example 95],,inhibition at 100 µM [2]: 66%
"Fc1ccc(Oc2ccc3ncn(CC4CCCO4)c3c2)cc1 (stereo not drawn) [Example 2, 6-(4-fluorophenoxy)-1-(tetrahydrofuran-2-ylmethyl)-1H-benzimidazole]",85,
CC(C)(O)Cn1cnc2ccc(-c3cc(F)cc(Cl)c3)cc21 [Example 143],35,
"Cc1ccc(Oc2ccc3ncn(CC(C)(C)O)c3c2)cn1 [Example 24, 2-methyl-1-{6-[(6-methylpyridin-3-yl)oxy]-1H-benzimidazol-1-yl}propan-2-ol]",56,
"CC(C)(O)Cn1cnc2ccc(Oc3ccc(C(F)(F)F)cc3)cc21 [Example 15, 2-methyl-1-{6-[4-(trifluoromethyl)phenoxy]-1H-benzimidazol-1-yl}propan-2-ol]",57,
OC1(Cn2cnc3ccc(Oc4ccc(Cl)cc4F)cc32)COC1 [Example 109],30,
"Cc1ccc(Oc2ccc3ncn(CC(C)(C)O)c3c2)cc1 [Example 14, 2-methyl-1-[6-(4-methylphenoxy)-1H-benzimidazol-1-yl]propan-2-ol]",,inhibition at 10 µM: 68%
Fc1ccc(-c2ccc3ncn(CC4CCCO4)c3c2)cc1 (stereo not drawn) [Example 6],41,

Compound,inhibition at 10 µM [1] [%],also measured
OC1(Cn2cnc3ccc(Oc4ccc(C(F)(F)F)cn4)cc32)CCOCC1 [Example 55],37,
COc1cc(F)ccc1-c1ccc2ncn(CC(C)(C)O)c2c1 [Example 128],24,
OC1(Cn2cnc3ccc(Oc4ccc(Cl)cc4Cl)cc32)COC1 [Example 106],50,
CC(C)(O)Cn1cnc2ccc(Oc3ccc(OC(F)(F)F)cn3)cc21 [Example 120],13,
C[C@]1(O)C[C@@H](n2cnc3ccc(Oc4ccc(C(F)(F)F)cc4)cc32)C1 [Example 113],68,
CC(C)(CO)n1cnc2ccc(Oc3ccc(C(F)(F)F)cn3)cc21 [Example 116],33,
OC1(Cn2cnc3ccc(Oc4ccc(Cl)cc4)cc32)COC1 [Example 91],24,
"CC(C)(O)Cn1cnc2ccc(-c3ccc(C(F)(F)F)cc3)cc21 [Example 9, 2-methyl-1-{6-[4-(trifluoromethyl)phenyl]-1H-benzimidazol-1-yl}propan-2-ol]",77,
Cc1cc(Cl)ccc1-c1ccc2ncn(CC(C)(C)O)c2c1 [Example 129],51,
CC(C)(O)Cn1cnc2ccc(-c3ccc4ocnc4c3)cc21 [Example 147],15,
CC(C)(O)Cn1cnc2ccc(-c3ccc(F)c(Cl)c3)cc21 [Example 134],50,
CC(C)(O)Cn1cnc2ccc(-c3cccc(C(F)(F)F)c3)cc21 [Example 137],38,
OC1(Cn2cnc3ccc(Oc4ccc5scnc5c4)cc32)COC1 [Example 114],26,
O[C@H]1CC[C@H](n2cnc3ccc(Oc4ccc(C(F)(F)F)cn4)cc32)CC1 [Example 117],,inhibition at 100 µM [2]: 44%
CC(C)(O)Cn1cnc2ccc(-c3cccc(Cl)c3F)cc21 [Example 133],60,
CC(C)(O)Cn1cnc2ccc(-c3cnoc3)cc21 [Example 144],19,
OC1(Cn2cnc3ccc(-c4ccc(Cl)cc4C(F)(F)F)cc32)COC1 [Example 151],44,
COc1ccc(-c2ccc3c(c2)ncn3CC(C)(C)O)cn1 [Example 182],,inhibition at 100 µM [2]: 11%
"CC(C)(O)Cn1cnc2cc(Oc3ncc(C(F)(F)F)cn3)ccc21 [Example 52, 2-methyl-1-(5-{[5-(trifluoromethyl)pyrimidin-2-yl]oxy}-1H-benzimidazol-1-yl)propan-2-ol]",46,

# Now from value to compound, other results behind:
inhibition at 10 µM [1] [%],Compound,also measured
49,OC1(Cn2cnc3ccc(-c4cc(C(F)(F)F)ccc4F)cc32)COC1 [Example 161],
77,OC1(Cn2cnc3ccc(-c4cccc(C(F)(F)F)c4Cl)cc32)COC1 [Example 168],
32,CC(C)(O)Cn1cnc2cc(-c3ccc4ocnc4c3)ccc21 [Example 201],
47,CC(C)(O)CCn1cnc2cc(-c3ccc(C(F)(F)F)cc3F)ccc21 [Example 223],
45,COc1cc(C(F)(F)F)ccc1-c1ccc2c(c1)ncn2CCC(C)(C)O [Example 222],
53,Cc1cc(Cl)cc(-c2ccc3c(c2)ncn3CC2(O)COC2)c1 [Example 218],
34,CC(C)(O)Cn1cnc2cc(-c3ccc(Cl)cc3)ccc21 [Example 178],
44,OC1(Cn2cnc3cc(-c4cc(C(F)(F)F)ccc4Cl)ccc32)COC1 [Example 211],
25,OC1(Cn2cnc3ccc(-c4cccc(Cl)c4F)cc32)COC1 [Example 153],
45,OC1(Cn2cnc3cc(Oc4ccc(C(F)(F)F)cc4)ccc32)COC1 [Example 226],
38,OC1(Cn2cnc3ccc(-c4cccc(Cl)c4Cl)cc32)COC1 [Example 152],
78,CC(C)(O)Cn1cnc2cc(-c3ccc(C(F)(F)F)cc3Cl)ccc21 [Example 192],
45,CC(C)(O)CCn1cnc2cc(-c3ccc(C(F)(F)F)cc3)ccc21 [Example 221],
64,CC(C)(O)Cn1cnc2cc(Oc3ccc(C(F)(F)F)cc3)ccc21 [Example 225],
84,COc1cc(-c2ccc3c(c2)ncn3CC(C)(C)O)cc(C(F)(F)F)c1 [Example 199],
55,OC1(Cn2cnc3ccc(-c4ccc(Cl)c(Cl)c4)cc32)COC1 [Example 155],

inhibition at 10 µM [1] [%],Compound,also measured
40,CC(C)(O)CCn1cnc2cc(-c3ccc(F)cc3)ccc21 [Example 219],
52,OC1(Cn2cnc3ccc(-c4ccc(F)c(Cl)c4)cc32)COC1 [Example 154],
52,CC(C)(O)Cn1cnc2cc(-c3cc(F)cc(Cl)c3)ccc21 [Example 200],
42,CC(C)(O)Cn1cnc2cc(-c3cccc(Cl)c3F)ccc21 [Example 189],
73,"COc1cc(C(F)(F)F)ccc1-c1ccc2c(c1)ncn2CC(C)(C)O [Example 176, 1-{5-[2-methoxy-4-(trifluoromethyl)phenyl]-1H-benzimidazol-1-yl}-2-methylpropan-2-ol]",
60,CC(C)(O)CCn1cnc2ccc(-c3ccc(Cl)cc3)cc21 [Example 171],
45,Cc1cc(Cl)ccc1-c1ccc2c(c1)ncn2CC(C)(C)O [Example 187],
32,CC(C)(O)CCn1cnc2ccc(-c3ccc(F)cc3)cc21 [Example 170],
22,COc1cc(F)ccc1-c1ccc2c(c1)ncn2CC(C)(C)O [Example 186],
23,CC(C)(O)Cn1cnc2cc(-c3ccc(S(C)(=O)=O)cc3C(F)(F)F)ccc21 [Example 193],
84,Cc1c(-c2ccc3c(c2)ncn3CC2(O)COC2)cccc1C(F)(F)F [Example 215],
80,"COc1cc(C(F)(F)F)ccc1-c1ccc2ncn(CCC(C)(C)O)c2c1 [Example 173, 4-{6-[2-methoxy-4-(trifluoromethyl)phenyl]-1H-benzimidazol-1-yl}-2-methylbutan-2-ol]",
58,CC(C)(O)Cn1cnc2cc(-c3cccc(OC(F)(F)F)c3)ccc21 [Example 198],
52,CC(C)(O)Cn1cnc2cc(-c3ccc(Cl)cc3C(F)(F)F)ccc21 [Example 191],
31,CC(C)(O)Cn1cnc2cc(-c3ccccc3Cl)ccc21 [Example 195],
